Reference: patent US11291655B2, “RAD51 inhibitors” (Cyteir Therapeutics, Inc., priority 2017, dated 2022)

What follows are molecules tested on Daudi Cell Culture (assay: Compound primary screening in Daudi cell culture). Settings: Homo sapiens, 168 h; Daudi cells, 1250 cells per well, reads on Day 7.
Type: cell-based
In short: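 Daudi cells seeded at 1250 cells per well in 130 ul medium at 37° C. and treated with serially diluted compounds added from a media master plate; read on Day 7.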

Row | Compound | EC50
1 | COC(=O)[C@@H](NS(=O)(=O)c1cc(NC(C)=O)ccc1-c1cnc(-c2ccc(NC(=S)NC(C)C)cc2)s1)C(C)C [Compound D2] | > 10 µM
2 | CC(=O)Nc1ccc(-c2cnc(-c3ccc(NC(=S)NC(C)C)cc3)s2)c(S(=O)(=O)N2CCNCC2)c1 [Compound A3] | < 5 µM
3 | CC(=O)Nc1ccc(-c2ncc(-c3ccc(NC(=S)NC(C)C)cc3S(=O)(=O)NC(C)(C)C)s2)cc1 [Compound E5] | < 10 µM
4 | CC(C)OC(=O)Nc1ccc(-c2ncc(-c3ccc(NC(=O)NCc4ccccc4)cc3S(=O)(=O)NC(C)(C)C)s2)cc1 [Compound A2] | < 1 µM
5 | CC(C)OC(=O)Nc1ccc(-c2ncc(-c3ccc(NC(=O)CCc4ccccc4)cc3S(=O)(=O)NC(C)(C)C)s2)cc1 [Compound B6] | < 1 µM
6 | CNCCNS(=O)(=O)c1cc(NC(C)=O)ccc1-c1cnc(-c2ccc(NC(=S)NC(C)C)cc2)s1 [Compound D29] | > 10 µM
7 | CC(=O)Nc1ccc(-c2cnc(-c3ccc(NC(=S)NC(C)C)cc3)s2)c(S(=O)(=O)N2CCOCC2)c1 [Compound D8] | > 10 µM
8 | CC(=O)N(C)c1ccc(-c2cnc(-c3ccc(N)cc3)s2)c(S(=O)(=O)NC(C)(C)C)c1 [Compound E14] | > 10 µM
9 | COc1cc(-c2ncc(-c3ccc(N4CCCC4=O)cc3S(=O)(=O)NC(C)(C)C)s2)ccc1NC(=O)OC(C)C [Compound J16] | < 10 µM
10 | CC(=O)Nc1ccc(-c2cnc(-c3ccc(NC(=S)NC(C)C)cc3)s2)c(S(=O)(=O)NCc2ccccc2)c1 [Compound D19] | > 10 µM

Next, values leading:

Row | EC50 | Compound
11 | > 10 µM | CC(C)OC(=O)Nc1ccc(-c2ncc(-c3ccc(C(=O)NCc4ccccc4)cc3S(=O)(=O)NC(C)(C)C)s2)cc1 [Compound K1]
12 | > 10 µM | CC(=O)Nc1ccc(-c2cnc(-c3ccc(NS(C)(=O)=O)cc3)s2)c(S(=O)(=O)NC(C)(C)C)c1 [Compound G5]
13 | > 10 µM | CC(C)OC(=O)Nc1ccc(-c2ncc(-c3ccc(N4CCC(Cc5ccccc5)C4=O)cc3S(=O)(=O)NC(C)(C)C)s2)cc1 (stereo not shown) [Compound J28, isopropyl (4-(5-(4-(3-benzyl-2-oxopyrrolidin-1-yl)-2-(N-(tert-butyl)sulfamoyl)phenyl)thiazol-2-yl)phenyl)carbamate]
14 | < 1 µM | CCOC(=O)Nc1ccc(-c2cnc(-c3ccc(NC(=O)OC(C)C)cc3)s2)c(S(=O)(=O)NC(C)(C)C)c1 [Compound H6]
15 | > 10 µM | CC(C)NC(=S)Nc1ccc(-c2ncc(-c3ccc(NC(=O)NCc4cn[nH]c4)cc3S(=O)(=O)NC(C)(C)C)s2)cc1 [Compound N4]
16 | < 5 µM | CC(C)OC(=O)Nc1ccc(-c2ncc(-c3ccc(NCC(F)(F)F)cc3S(=O)(=O)NC(C)(C)C)s2)cc1 [Compound I3, isopropyl N-[4-[5-[2-(tert-butylsulfamoyl)-4-(2,2,2-trifluoroethylamino)phenyl]thiazol-2-yl]phenyl]carbamate]
17 | < 1 µM | CCC(=O)Nc1ccc(-c2cnc(-c3ccc(NC(=O)OC(C)C)cc3)s2)c(S(=O)(=O)NC(C)(C)C)c1 [Compound H4]
18 | < 5 µM | CC(C)NC(=S)Nc1ccc(-c2ncc(-c3ccc(NC(=O)NCc4ccncc4)cc3S(=O)(=O)NC(C)(C)C)s2)cc1 [Compound M2]
19 | < 1 µM | CC(C)OC(=O)Nc1ccc(-c2ncc(-c3ccc(NC(=O)c4ccccc4)cc3S(=O)(=O)NC(C)(C)C)s2)cc1 [Compound H9]
20 | < 5 µM | CC(=O)Nc1ccc(-c2cnc(-c3ccc(NC(=O)OC(C)(C)C)cc3)s2)c(S(=O)(=O)NC(C)(C)C)c1 [Compound G11, tert-butyl N-[4-[5-[4-acetamido-2-(tert-butylsulfamoyl)phenyl]thiazol-2-yl]phenyl]carbamate]
21 | > 10 µM | CNS(=O)(=O)Nc1ccc(-c2ncc(-c3ccc(NC(C)=O)cc3S(=O)(=O)NC(C)(C)C)s2)cc1 [Compound G9]
22 | < 10 µM | CC(C)OC(=O)N(C)c1ccc(-c2ncc(-c3ccc(N4CCCC4=O)cc3S(=O)(=O)NC(C)(C)C)s2)cc1 [Compound J8, isopropyl N-[4-[5-[2-(tert-butylsulfamoyl)-4-(2-oxopyrrolidin-1-yl)phenyl]thiazol-2-yl]phenyl]-N-methyl-carbamate]
